Laboratory results taken from ChEMBL document CHEMBL1201862, “PubChem BioAssay data set” (2004).
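Values below derive from 48-hour exposures of cells grown in 96-well plates, with endpoints linearly interpolated between the two concentrations bracketing the appropriate inhibition level. Abbreviation: GI50, concentration required for 50% inhibition of growth.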 Active and inactive are the calls of the source. No stated cut-off is given here; in the data, active = GI50 up to about 1.1 µM and inactive = higher.

Assays:
Assay in all cases: DTP human tumour cell line panel, 48 h
[1] = test system: A549
[2] = test system: ACHN
[3] = test system: CAKI-1
[4] = test system: EKVX
[5] = test system: HCC 2998
[6] = test system: HL-60
[7] = test system: HOP-92
[8] = test system: K562
[9] = test system: KM12
[10] = test system: LOX IMVI
[11] = test system: MCF7
[12] = test system: Malme-3M
[13] = test system: OVCAR-4
[14] = test system: RPMI-8226
[15] = test system: SF-295
[16] = test system: SNB-75
[17] = test system: U-251
[18] = test system: DLD-1
[19] = test system: DMS-114
[20] = test system: SNB-78

SMILES	GI50 [1]	GI50 [2]	GI50 [3]	GI50 [4]	GI50 [5]	GI50 [6]	GI50 [7]	GI50 [8]	GI50 [9]	GI50 [10]	GI50 [11]	GI50 [12]	GI50 [13]	GI50 [14]	GI50 [15]	GI50 [16]	GI50 [17]	GI50 [18]	GI50 [19]	GI50 [20]
CC(=O)Nc1ccc2[nH]c(C(=O)N3CC(CCl)c4c3cc(N)c3ccccc43)cc2c1 (stereo unspecified)	0.0128 µM (active)	< 0.01 µM (active)	0.0129 µM (active)	< 0.0148 µM (active)	< 0.01 µM (active)	< 0.01 µM (active)	< 0.0191 µM (active)	< 0.0163 µM (active)	< 0.01 µM (active)	< 0.0115 µM (active)	0.0107 µM (active)	< 0.01 µM (active)	< 0.01 µM (active)	< 0.0171 µM (active)	0.0135 µM (active)	< 0.01 µM (active)	0.0143 µM (active)	–	–	–
CCCCCCCCCCCCCCCC(=O)OC1C(O)C(CO)OC(OC)C1NC(=O)N(CCCl)N=O (stereo unspecified)	10.3 µM (inactive)	8.81 µM (inactive)	32 µM (inactive)	20.1 µM (inactive)	–	–	–	22.3 µM (inactive)	16.5 µM (inactive)	11.4 µM (inactive)	–	–	20.6 µM (inactive)	21.1 µM (inactive)	10.6 µM (inactive)	12 µM (inactive)	5.22 µM (inactive)	16.2 µM (inactive)	12.1 µM (inactive)	19.5 µM (inactive)
NS(=O)(=O)C1CCCCC1C(=O)NNC(=O)C(=O)Nc1nnc(S)[nH]1 (stereo unspecified)	> 100 µM (inactive)	> 100 µM (inactive)	> 100 µM (inactive)	> 100 µM (inactive)	> 100 µM (inactive)	> 100 µM (inactive)	> 100 µM (inactive)	> 100 µM (inactive)	> 100 µM (inactive)	> 100 µM (inactive)	–	–	> 100 µM (inactive)	> 100 µM (inactive)	> 100 µM (inactive)	> 100 µM (inactive)	> 100 µM (inactive)	> 100 µM (inactive)	> 100 µM (inactive)	> 100 µM (inactive)
COc1ccc(N2CN(C)CSC2=S)cc1	> 100 µM (inactive)	> 100 µM (inactive)	> 100 µM (inactive)	> 100 µM (inactive)	> 100 µM (inactive)	72.8 µM (inactive)	–	21.1 µM (inactive)	> 100 µM (inactive)	86.7 µM (inactive)	89.7 µM (inactive)	> 100 µM (inactive)	> 100 µM (inactive)	32.3 µM (inactive)	23.4 µM (inactive)	> 100 µM (inactive)	> 100 µM (inactive)	–	–	–
CO/N=C1/c2sccc2[C@H](NC(=O)C(F)(F)F)[C@@H]1O	> 100 µM (inactive)	–	> 100 µM (inactive)	> 100 µM (inactive)	> 100 µM (inactive)	> 100 µM (inactive)	> 100 µM (inactive)	> 100 µM (inactive)	–	> 100 µM (inactive)	> 100 µM (inactive)	> 100 µM (inactive)	> 100 µM (inactive)	–	> 100 µM (inactive)	> 100 µM (inactive)	> 100 µM (inactive)	–	–	–
COc1ccc(-c2c3ccccc3c(-c3ccc(OCCCCCBr)cc3)c3ccccc23)cc1	> 100 µM (inactive)	> 100 µM (inactive)	> 100 µM (inactive)	> 100 µM (inactive)	> 100 µM (inactive)	> 100 µM (inactive)	> 100 µM (inactive)	> 100 µM (inactive)	> 100 µM (inactive)	> 100 µM (inactive)	–	> 100 µM (inactive)	> 100 µM (inactive)	> 100 µM (inactive)	> 100 µM (inactive)	–	–	> 100 µM (inactive)	> 100 µM (inactive)	–
